Source: paper PMC4192597, “Antimicrobials, Stress and Mutagenesis” (PLoS Pathogens, 2014)
≈ marks a conversion by molar mass, not a printed value. Read-outs that look alike come from different tables or passages of the source.

Key:
[1] = tested on: E. coli stress response genes; conditions: cited from earlier work
[2] = tested on: E. coli stress response genes (strain MG1655); assay: Relative gene expression of stress response genes by quantitative real-time PCR; type: cell-based, Escherichia coli; conditions: qPCR; for Result, cpxA / Result, cpxR / Result, dinB / Result, lexA / Result, marR / Result, oxyR / Result, phoP / Result, phoQ / Result, recA / Result, rpoE / Result, rpoS / Result, umuC / Expression, cpxA (Envelope stress) / Expression, cpxR (Envelope stress) / Expression, dinB (SOS response) / Expression, lexA (SOS response) / Expression, oxyR (Oxidative stress) / Expression, phoP (Envelope stress) / Expression, phoQ (Envelope stress) / Expression, recA (SOS response) / Expression, rpoE (Envelope stress) / Expression, rpoS (Sigma S response) / Expression, umuC (SOS response) / Expression, marR (Independent multiple antibiotic resistance): 20 minutes exposure vs non-treated bacteria; for Result, cpxA / Result, cpxR / Result, dinB / Result, lexA / Result, marR / Result, oxyR / Result, phoP / Result, phoQ / Result, recA / Result, rpoE / Result, rpoS / Result, umuC: REST 2009 randomisation test; for Expression, cpxA (Envelope stress) / Expression, cpxR (Envelope stress) / Expression, dinB (SOS response) / Expression, lexA (SOS response) / Expression, oxyR (Oxidative stress) / Expression, phoP (Envelope stress) / Expression, phoQ (Envelope stress) / Expression, recA (SOS response) / Expression, rpoE (Envelope stress) / Expression, rpoS (Sigma S response) / Expression, umuC (SOS response) / Expression, marR (Independent multiple antibiotic resistance): normalized to arcA, mdoG, tus, Pexiganan 16, Melittin 16, Kanamycin 16, Ciprofloxacin 0.5, Lysozyme 128, Ampicillin 32 μg/ml, three biological replicates; on Result, cpxR: key: NDE: non-differentially expressed, p-value ≥ 0,05; UP: upregulated, p-value ≤ 0,05; DOWN: downregulated, p-value ≤ 0,05; on Result, oxyR: key: NDE: non-differentially expressed, p-value ≥ 0,05; UP: upregulated, p-value ≤ 0,05; DOWN: downregulated, p-value ≤ 0,05; on Result, rpoE: key: NDE: non-differentially expressed, p-value ≥ 0,05; UP: upregulated, p-value ≤ 0,05; DOWN: downregulated, p-value ≤ 0,05
Method: Preparation of each of the six treatments and the control samples was carried out by two operators on three consecutive days, thereby comprising three biological replicates for each of the six experimental and one control groups. To obtain the starting material for the experiment, a fresh bacterial culture was grown from a glycerol stock on Mueller-Hinton (MH) agar plates at 37°C for 18–24 hours. One well-isolated colony per biological replicate was used to inoculate 2 ml of liquid MH (Sigma) in a 10 ml sterile polypropylene tube and incubated at 37°C for 16 hours with mild shaking. The overnight (ON) culture was then diluted 1∶100 in MH, subdivided into seven 10 ml aliquots and incubated in 50 ml-Falcon tubes at 37°C for 2.5 hours at 220 rpm. When the OD600 of bacterial cultures reached 0.5–0.7, respective antibiotics and AMPs were added to a concentration to match with those used in the mutagenesis experiments. These bacterial cultures were incubated for 20 minutes at 37°C with gentle shaking. Two ml of bacterial cultures from each treatment and the control were collected, immediately centrifuged at 10000 g for 2 minutes and the supernatant was removed to stop the treatment. The bacterial pellet was then resuspended in 1 ml MH, followed by an addition of 1 ml of RNAprotect Bacteria Reagent (Qiagen), 5 minutes incubation and centrifugation at 10000 g for 2 minutes at room temperature. The supernatant was discarded and the bacterial pellet was immediately frozen and stored at −80°C until RNA extraction.
Total RNA was isolated using RNeasy kit (Qiagen) according to the manufacturer's instructions and eluted in 50 µl of RNase-free water. The nucleic acid yield and purity were determined by measuring the optical density at A260/280 using a Nanodrop spectrophotometer (Thermo Scientific). RNA samples were treated with TURBO DNase (Life Technologies). Briefly, ten µg of RNA were used in a total volume of 500 µl containing 20 units of TURBO DNase, incubated for 30 minutes at 37°C, immediately followed by RNeasy (Qiagen) cleanup and elution in 30 µl of RNase-free water. Following DNase treatment, RNA integrity was assessed using Agilent RNA 6000 Nano kit and 2100 Bioanalyzer instrument (both Agilent Technologies).
High-Capacity cDNA Reverse Transcription Kit with RNase Inhibitor (Applied Biosystems) was used for cDNA synthesis. Initially, to ensure linear conversion of the transcripts, the dynamic range of reverse transcription reaction was tested by performing a standard curve with cDNA, synthesised using various input amounts of pooled RNA. Total RNA (250 ng per reaction) and random primers were used for cDNA synthesis. To obtain sufficient amount of cDNA, several batches of 20 µl RT reactions were pooled, diluted 50-fold with RNase-free water and stored in single-use aliquots at −80°C until further use. All 21 samples were tested for presence of contaminating genomic DNA by running the mdoG assay with cDNA and the respective no reverse transcription (−RT) controls.
Escherichia coli strain K-12 substrain MG1655 complete genome (accession U00096) sequence was downloaded from NCBI database (www.ncbi.nlm.nih.gov) and used for primer design. Target sequence accession number, location of the amplicon, amplicon length and primer sequences for each assay can be found in table S2. Primers were designed using Primer Express software (Applied Biosystems) and optimized for annealing temperature of 60°C. Each primer pair and amplicon were checked for secondary structure formation using Oligo Tool (Integrated DNA technologies, http://eu.idtdna.com/analyzer/Applications/OligoAnalyzer/).

E. coli MG1655 [3] = assay: microbe, parasite or virus in culture; type: cell-based, Escherichia coli; conditions: 4 hours, 50% reduction of CFUs vs control, Mueller Hinton Broth, 37°C, five replicates, repeated twice
Method: The MIC50s for all antimicrobials were determined by inoculating strains grown to mid-log phase into the wells of a 96-microwell plate. Approximately 10^2 cells from overnight cultures were inoculated into tubes containing 10 ml of Mueller Hinton Broth medium, and the tubes were incubated at 37°C with strong shaking until the mid-log phase of growth (approximately 10^8 cells/ml). […] The plates were incubated at 37°C for 4 h with continuous shaking in a plate reader (Synergy 2, BioTeK). After four hours, aliquots from wells with OD^600 readings ranging from 10 to 90% values in comparison with the control, were serially diluted in sterile 0.9% NaCl, and incubated during 1 hour to allow the resolution of filaments as consequence of SOS activation, if any. Bacterial suspensions were plated in Mueller Hinton Broth agar plates to estimate the viability as colony forming units (CFUs). Five replicates per concentration were prepared and the experiments were repeated twice.

E. coli MG1655 [4] = assay: Minimal inhibitory concentration (MIC), micro-dilution; type: cell-based, Escherichia coli; conditions: inoculum 2×10^8 cfu/ml, 24 h, liquid MH medium, 37°C
Method: E. coli K-12 MG1655 was used for all experiments, grown in liquid Mueller-Hilton (MH) agar or agarose, unless otherwise indicated. All experiments were carried out at 37°C.
MICs were determined according to CLSI recommendations by a micro-dilution method with the exception that the inoculum size that was adjusted to 2×10^8 cfu/ml from a regrowth of overnight cultures to be consistent with the mutagenesis experiments. […] Polypropylene non-binding plates (Th. Geyer, Germany) were used for all experiments.

[5] = norfloxacin 250 ng/ml, 30 min, ref Kohanski,2007
[6] = norfloxacin 250 ng/ml, 60 min, ref Kohanski,2007
[7] = norfloxacin 15 μg/ml, 20 min, gyrA+/parCr, ref Peter,2004
[8] = norfloxacin 15 μg/ml, 30min, gyrAr/parCCr cells, ref Peter,2004
[9] = Escherichia coli, read-out: MIC50
[10] = ampicillin 5 μg/ml, 120 min, ref Kohanski,2007

Molecule | Result, cpxA [2] | Result, cpxR [2] | Result, dinB [2] | Result, lexA [2] | Result, marR [2] | Result, oxyR [2] | Result, phoP [2] | Result, phoQ [2] | Result, recA [2] | Expression, cpxA (Envelope stress) [2] | Expression, cpxR (Envelope stress) [2] | Expression, dinB (SOS response) [2] | Expression, lexA (SOS response) [2] | Expression, oxyR (Oxidative stress) [2] | Expression, phoP (Envelope stress) [2] | Expression, phoQ (Envelope stress) [2] | Expression, recA (SOS response) [2] | Expression, rpoE (Envelope stress) [2] | Expression, rpoS (Sigma S response) [2] | Expression, umuC (SOS response) [2] | further results
CCn1cc(C(=O)O)c(=O)c2cc(F)c(N3CCNCC3)cc21 [norfloxacin] |  |  |  |  |  |  |  |  |  |  |  |  |  |  |  |  |  |  |  |  | expression, recA (microarray database) ([1]; norfloxacin 0.12 μg/ml, 30 min, ref Shaw,2003): 11.1; expression, rpoE (microarray database) [1, 5]: -2.308; expression, rpoS (microarray database) [1, 5]: -2.24; expression, cpxR (microarray database) [1, 6]: -2.588; expression, phoP (microarray database) [1, 6]: -2.179; expression, phoQ (microarray database) ([1]; norfloxacin 15 μg/ml, 4 min, gyrA+/parC+, ref Peter,2004): -2.778; expression, cpxA (microarray database) ([1]; norfloxacin 15 μg/ml, 10 min, gyrA+/parCr, ref Peter,2004): -2.439; expression, dinB (microarray database) [1, 7]: 2.57; expression, oxyR (microarray database) [1, 7]: 4.05; expression, lexA (microarray database) [1, 8]: 5; expression, umuC (microarray database) [1, 8]: 8.421; expression, marR (microarray database) ([1]; norfloxacin (30min) / spectinmycin, 250 ng/ml, 30 min, spectinomycin (400 μg/ml), ref Kohanski,2007): -3.206
O=C(O)c1cn(C2CC2)c2cc(N3CCNCC3)c(F)cc2c1=O [Ciprofloxacin] | DOWN (2.25-fold) | NDE | UP (14.2-fold) | UP (10.5-fold) | DOWN (5.35-fold) | NDE | NDE | NDE | UP (66.6-fold) | 0.443 | 0.425 | 14.157 | 10.527 | 3.552 | 0.655 | 0.48 | 66.583 | 0.391 | 0.479 | 11.255 | fold downregulation, cpxA ([2]; 20 minutes exposure): 2.25 fold; fold downregulation, marR ([2]; 20 minutes exposure): 5.35 fold; fold downregulation, rpoS ([2]; 20 minutes exposure): 2.08 fold; fold upregulation, dinB ([2]; 20 minutes exposure): 14.2 fold; fold upregulation, lexA ([2]; 20 minutes exposure): 10.5 fold; fold upregulation, recA ([2]; 20 minutes exposure): 66.6 fold; fold upregulation, umuC ([2]; 20 minutes exposure): 11.26 fold; Result, rpoE [2]: NDE; Result, rpoS [2]: DOWN (2.08-fold); Result, umuC [2]: UP (11.26-fold); MIC50 (E. coli MG1655 [3]; [9]): 0.05 µg/mL
CC1(C)S[C@@H]2[C@H](NC(=O)[C@H](N)c3ccccc3)C(=O)N2[C@H]1C(=O)O [Ampicillin] | NDE | NDE | NDE | NDE | UP (2.5-fold) | NDE | NDE | NDE |  | 1.083 | 0.988 | 1.623 | 1.563 | 0.923 | 1.026 | 0.96 | 1.627 | 0.815 | 1.31 | 1.373 | expression, lexA (microarray database) [1, 10]: 2.143; expression, marR (microarray database) [1, 10]: 4.064; expression, phoP (microarray database) [1, 10]: -2.302; expression, rpoS (microarray database) [1, 10]: -2.26; expression, rpoE (microarray database) ([1]; ampicillin 25 μg/ml, 30 min, ref Shaw,2003): -4.545; Expression, marR (Independent multiple antibiotic resistance) [2]: 2.498; MIC (E. coli MG1655 [4]; Escherichia coli, read-out: MIC): 4 µg/mL (≈ 11.4 µM); MIC50 (E. coli MG1655 [3]; [9]): 3.2 µg/mL
Human lysozyme: human lysozyme obtained from Sigma | NDE | NDE | NDE | NDE | NDE | NDE | NDE | NDE | NDE | 0.902 | 0.908 | 1.116 | 1.18 | 1.334 | 0.794 | 0.667 | 1.27 | 0.784 | 0.899 | 1.056 | Result, rpoE [2]: NDE; Result, rpoS [2]: NDE; Result, umuC [2]: NDE; Expression, marR (Independent multiple antibiotic resistance) [2]: 0.633; MIC (E. coli MG1655 [4]): 20 µg/mL; MIC50 (E. coli MG1655 [3]): 12.8 µg/mL
CC[C@H](C)[C@H](NC(=O)[C@H](CCCCN)NC(=O)[C@H](CCC(=O)O)NC(=O)[C@H](CCCCN)NC(=O)[C@H](CO)NC(=O)[C@H](CCCCN)NC(=O)[C@H](CCCNC(=N)N)NC(=O)[C@H](Cc1ccccc1)NC(=O)[C@H](Cc1ccccc1)NC(=O)[C@H](CC(=O)O)NC(=O)CNC(=O)[C@H](CC(C)C)NC(=O)[C@@H](N)CC(C)C)C(=O)NCC(=O)N[C@@H](CCCCN)C(=O)N[C@@H](CCC(=O)O)C(=O)N[C@@H](Cc1ccccc1)C(=O)N[C@@H](CCCCN)C(=O)N[C@@H](CCCNC(=N)N)C(=O)N[C@H](C(=O)N[C@H](C(=O)N[C@@H](CCC(N)=O)C(=O)N[C@@H](CCCNC(=N)N)C(=O)N[C@H](C(=O)N[C@@H](CCCCN)C(=O)N[C@@H](CC(=O)O)C(=O)N[C@@H](Cc1ccccc1)C(=O)N[C@@H](CC(C)C)C(=O)N[C@@H](CCCNC(=N)N)C(=O)N[C@@H](CC(N)=O)C(=O)N[C@@H](CC(C)C)C(=O)N[C@H](C(=O)N1CCC[C@H]1C(=O)N[C@@H](CCCNC(=N)N)C(=O)N[C@H](C(=O)N[C@@H](CCC(=O)O)C(=O)N[C@@H](CO)C(=O)O)[C@@H](C)O)C(C)C)[C@@H](C)CC)C(C)C)[C@@H](C)CC [LL-37] |  |  |  |  |  |  |  |  |  |  |  |  |  |  |  |  |  |  |  |  | MIC50 (E. coli MG1655 [3]): 8 µg/mL
